The target of the experiment is T1, PstrOR17 (Phyllotreta striolata, UniProt A0A9N9TEW2).
T1 construct: gene PHYEVI_LOCUS1381; full-length ORF (1182 bp, 393 residues) from antennal cDNA in pUAST.attb; expressed in Drosophila melanogaster ab3A empty neurons under DmelOR22-Gal4; endogenous fly Orco not mentioned for the assay; with Odorant receptor coreceptor (Drosophila melanogaster, endogenous in the ab3A neuron)
T1 sequence (A0A9N9TEW2 1-393): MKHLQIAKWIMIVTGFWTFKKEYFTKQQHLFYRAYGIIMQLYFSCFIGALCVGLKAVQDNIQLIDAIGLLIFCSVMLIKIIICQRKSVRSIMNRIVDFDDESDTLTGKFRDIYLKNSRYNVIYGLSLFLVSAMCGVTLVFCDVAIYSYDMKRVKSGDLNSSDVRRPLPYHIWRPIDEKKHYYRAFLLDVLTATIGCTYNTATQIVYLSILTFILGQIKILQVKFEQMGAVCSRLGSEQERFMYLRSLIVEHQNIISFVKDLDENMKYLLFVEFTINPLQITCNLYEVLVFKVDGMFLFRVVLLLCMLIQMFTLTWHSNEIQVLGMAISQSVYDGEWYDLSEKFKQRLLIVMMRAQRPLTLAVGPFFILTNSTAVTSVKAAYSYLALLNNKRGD
T1 sequence (Q9VNB5 1-486 partner): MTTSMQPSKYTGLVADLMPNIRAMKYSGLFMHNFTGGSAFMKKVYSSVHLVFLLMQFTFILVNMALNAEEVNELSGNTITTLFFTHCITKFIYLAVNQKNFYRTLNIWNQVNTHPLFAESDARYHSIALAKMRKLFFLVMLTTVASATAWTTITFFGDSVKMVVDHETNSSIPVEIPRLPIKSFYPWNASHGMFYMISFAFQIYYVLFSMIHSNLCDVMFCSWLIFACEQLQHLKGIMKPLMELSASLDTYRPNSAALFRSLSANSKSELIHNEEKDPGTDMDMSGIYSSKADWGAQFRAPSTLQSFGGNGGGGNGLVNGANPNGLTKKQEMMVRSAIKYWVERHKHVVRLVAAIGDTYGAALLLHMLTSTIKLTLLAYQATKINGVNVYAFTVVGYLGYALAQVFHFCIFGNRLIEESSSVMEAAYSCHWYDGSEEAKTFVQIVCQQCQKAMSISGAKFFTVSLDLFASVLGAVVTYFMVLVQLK
The experiment can be described thus: single sensillum recording, Drosophila empty neuron (ab3A). In kind it is cell-based. As to conditions: agonist, odour cartridge 10 μL on filter strip.

The mark [1] stands for this setting: 10 μg/μL for profile, dose series 10^-5 to 10 mg/mL.

Consider `C=C1CC[C@H]2C[C@@H]1C2(C)C` [(−)-β-pinene], for which the “single sensillum recording, Drosophila empty neuron (ab3A)” value (from here on “single sensillum recording”) (10 μg/μL) was “moderate responses to five other odorants: α-pinene; (−)-β-pinene”.

For the compound `CC1=CCC2CC1C2(C)C` (stereo not drawn) [α-pinene], under “10 μg/μL”, the “single sensillum recording” value was “PstrOR17 also conferred moderate responses to five other odorants: α-pinene”. The same measure, in the same setting: with `CC1=CCC(C(C)C)=CC1` [γ-terpinene] the entry was “moderate responses to five other odorants: α-pinene; (−)-β-pinene; γ-terpinene”.

In the case of `CC1=C[C@H](O)[C@H]2C[C@@H]1C2(C)C` [(S)-cis-verbenol], the “single sensillum recording” value under setting [1] was “PstrOR17 responded to both (−)-verbenone and (S)-cis-verbenol in a dose-dependent manner”. On to `CC1=CC(=O)[C@H]2C[C@@H]1C2(C)C` [(−)-verbenone], for which the “single sensillum recording” value under setting [1] is “PstrOR17 responded to both (−)-verbenone and (S)-cis-verbenol in a dose-dependent manner”.

The values above are taken from article PMC11049977, “Antenna-Biased Odorant Receptor PstrOR17 Mediates Attraction of Phyllotreta striolata to (S)-Cis-Verbenol and (−)-Verbenone” (International Journal of Molecular Sciences, 2024).
